Common to all, as to assay type: cell-based
The test system of one assay is RS4;11 cells. The assay is described as follows: Cell proliferation assay, RS4;11 cells (MTS, 72 h). The note with it: Homo sapiens, RS4;11 cell proliferation. The procedure: MTS testing kit was purchased from Promega. The RPMI-1640, Fetal bovine serum and Penicillin-Streptomycin were purchased from Gibco. Dimethyl sulfoxide (DMSO) was purchased from Sigma.
To investigate whether a compound is able to inhibit the activity of Bcl-2 in cells, a mechanism-based assay using RS4;11 (ATCC® CRL-1873™) cell was developed. In this assay, inhibition of Bcl-2 was detected by the inhibition of RS4;11 cells proliferation. RS4;11 cells were cultured in culture flasks to 40-80% confluence in RPMI-1640 plus 10% fetal bovine serum. Cells were collected and plated onto 96-well plates at desired cell density (30000 cells/well). Plates were incubated overnight at 37° C., with 5% CO2 to adhere. Compounds were added to the plates, and the final compound concentrations were 10000, 3333, 1111, […], 41, 14, 4.6 and 1.5 nM. Plates plated with RS4;11 cells were placed at 37° C., with 5% CO2 for 72 h. 20 μl MTS/100 μl medium mixture solution were added to each well and incubate the plates for exactly 2 hours. The reaction was stopped by adding 25 μl 10% SDS per well. Measure absorbance at 490 nm and 650 nm (reference wavelength). IC50 was calculated using GraphPad Prism 5.0.

The test system of another assay is Toledo cells. Nature of the assay: Cell proliferation assay, Toledo cells (MTS, 72 h). The note with it: Toledo cells, MTS, read-out: Toledo IC50. The procedure, abridged: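 Toledo cells (30000/well, RPMI-1640 with 10% FBS) were preincubated for 4 h. They were then exposed to nine compound concentrations from 10000 to 1.5 nM for 72 h at 37 °C, 5% CO2. MTS was added for 2 h and absorbance read at 490 nm to give IC50.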

A further assay relates to RS4;11-BCL-2 F104L cells. Nature of the assay: Cell proliferation assay, engineered RS4;11 cells stably overexpressing BCL-2 F104L (MTS, 168 h). The note with it: Homo sapiens, read-out: RS4, 11 BCL2-F104L. The procedure, abridged: (§1)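 Proliferation read-out: MTS for exactly 2 h, then absorbance at 490 nm, with IC50 derived from the fit. Before this, engineered RS4;11 lines (BCL-2 G101V, F104L; 5000 cells/well) were exposed 168 h at 37 °C to serially diluted compound, final 1.4–10000 nM.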

In another assay the test system is RS4;11-BCL-2 G101V cells. The assay is described as follows: Cell proliferation assay, engineered RS4;11 cells stably overexpressing BCL-2 G101V (MTS, 168 h). The note with it: read-out: RS4, 11 BCL2- G101V. The essentials:
as §1

The structures appear in SMILES notation. pIC50: −log10 of the molar value. Where two headings read alike, the source gives them in different places.

On to `CC(C)c1ccccc1[C@@H]1CCCN1C1CC2(CCN(c3ccc(C(=O)NS(=O)(=O)c4cnc(NCC5CCC(C)(O)CC5)c([N+](=O)[O-])c4)c(Oc4cnc5[nH]ccc5c4)c3)CC2)C1` (stereo partly drawn) [Example A-6a, (5)-2-((1H-pyrrolo[2,3-b]pyridin-5-yl)oxy)-N-((6-(((4-hydroxy-4-methylcyclohexyl)methyl)amino)-5-nitropyridin-3-yl)sulfonyl)-4-(2-(2-(2-isopropylphenyl)pyrrolidin-1-yl)-7-azaspiro[3.5]nonan-7-yl) benzamide], for which the pIC50 with RS4;11 cells was no less than 9.00.
The same measure, in the same setting: with `CC(C)c1ccccc1[C@@H]1CCCN1C1CC2(CCN(c3ccc(C(=O)NS(=O)(=O)c4cnc(NCC5C6COCC56)c([N+](=O)[O-])c4)c(Oc4cnc5[nH]ccc5c4)c3)CC2)C1` (stereo in doubt) [Example A-27a, 2-((1H-pyrrolo[2,3-b]pyridin-5-yl)oxy)-N-((6-(((3-oxabicyclo[3.1.0]hexan-6-yl)methyl)amino)-5-nitro-pyridin-3-yl)sulfonyl)-4-(2-((5)-2-(2-isopropylphenyl)pyrrolidin-1-yl)-7-azaspiro[3.5]nonan-7-yl) benzamide] the figure was no less than 9.00; with `CCc1ccccc1[C@@H]1CCCN1C1CC2(CCN(c3ccc(C(=O)NS(=O)(=O)c4cnc(NCC5CCC(C)(O)CC5)c([N+](=O)[O-])c4)c(Oc4cnc5[nH]ccc5c4)c3)CC2)C1` (stereo partly drawn) [Example A-8a, (S)-2-((1H-pyrrolo[2,3-b]pyridin-5-yl)oxy)-4-(2-(2-(2-ethylphenyl)pyrrolidin-1-yl)-7-azaspiro[3.5]nonan-7-yl)-N-((6-(((4-hydroxy-4-methylcyclohexyl)methyl)amino)-5-nitropyridin-3-yl)sulfonyl) benzamide], no less than 9.00; with `CC1(O)CCC(CNc2ncc(S(=O)(=O)NC(=O)c3ccc(N4CCC5(CC4)CC(N4CCC[C@H]4c4ccccc4C4CC4)C5)cc3Oc3cnc4[nH]ccc4c3)cc2[N+](=O)[O-])CC1` (stereo partly drawn) [Example A-1a, (S)-2-((1H-pyrrolo[2,3-b]pyridin-5-yl)oxy)-4-(2-(2-(2-cyclopropylphenyl)pyrrolidin-1-yl)-7-azaspiro[3.5]nonan-7-yl)-N-((6-(((4-hydroxy-4-methylcyclohexyl)methyl)amino)-5-nitropyridin-3-yl)sulfonyl)benzamide], no less than 9.00.
On the same count and under the same terms, with `O=C(NS(=O)(=O)c1cnc(NCC2C3COCC23)c([N+](=O)[O-])c1)c1ccc(N2CCC3(CC2)CC(N2CCC[C@H]2c2ccccc2C2CC2)C3)cc1Oc1cnc2[nH]ccc2c1` (stereo partly drawn) [Example A-30a, 2-((1H-pyrrolo[2,3-b]pyridin-5-yl)oxy)-N-((6-(((3-oxabicyclo[3.1.0]hexan-6-yl)methyl)amino)-5-nitro-pyridin-3-yl)sulfonyl)-4-(2-((5)-2-(2-cyclopropylphenyl)pyrrolidin-1-yl)-7-azaspiro[3.5]nonan-7-yl) benzamide] the figure was no less than 9.00.
Consider `CC(C)c1ccccc1[C@@H]1CCCN1C1CC2(CCN(c3ccc(C(=O)NS(=O)(=O)c4cc5c(c([N+](=O)[O-])c4)N[C@@H]([C@H]4CC[C@](C)(O)CC4)CO5)c(Oc4cc5cc[nH]c5nc4OC[C@@H]4CCCN4C)c3)CC2)C1` (single isomer, unassigned) [Example D-131, N-(((S)-3-((1r,4S)-4-hydroxy-4-methylcyclohexyl)-5-nitro-3,4-dihydro-2H-benzo[b][1,4]oxazin-7-yl)sulfonyl)-4-(2-((R or S)-2-(2-isopropylphenyl)pyrrolidin-1-yl)-7-azaspiro[3.5]nonan-7-yl)-2-((6-(((S)-1-methylpyrrolidin-2-yl)methoxy)-1H-pyrrolo[2,3-b]pyridin-5-yl)oxy)benzamide], for which the pIC50 with Toledo cells (Homo sapiens) is 9.00; in the assay with RS4;11-BCL-2 F104L cells, 9.00; in the assay on RS4;11-BCL-2 G101V cells (Homo sapiens, RS4-11, 168 h), 9.00.
In the case of `O=C(NS(=O)(=O)c1cnc(NCC2CCSCC2)c([N+](=O)[O-])c1)c1ccc(N2CCC3(CC2)CC(N2CCOC[C@H]2c2ccccc2C2CC2)C3)cc1Oc1cnc2[nH]ccc2c1` (single isomer, unassigned) [Example A-98, (R or S)-2-((1H-pyrrolo[2,3-b]pyridin-5-yl)oxy)-4-(2-(3-(2-cyclopropyl-phenyl)morpholino)-7-azaspiro[3.5]nonan-7-yl)-N-((5-nitro-6-(((tetra-hydro-2H-thiopyran-4-yl)methyl)amino)pyridin-3-yl)sulfonyl) benzamide], the pIC50 with RS4;11 cells was no less than 9.00.
`CC(C)c1ccccc1[C@@H]1CCC[C@@H]1N1CC2(CCN(c3ccc(C(=O)NS(=O)(=O)c4cnc(NC[C@H]5CC[C@](C)(O)CC5)c([N+](=O)[O-])c4)c(Oc4cc5c(F)c[nH]c5nc4F)c3)CC2)C1` (single isomer, unassigned) [Example A-150, 2-((3,6-difluoro-1H-pyrrolo[2,3-b]pyridin-5-yl)oxy)-N-((6-((((1r,4r)-4-hydroxy-4-methylcyclohexyl)methyl)amino)-5-nitropyridin-3-yl)sulfonyl)-4-(2-((1S,2S or 1R,2R)-2-(2-isopropylphenyl)cyclo-petyl)-2,7-diazaspiro[3.5]nonan-7-yl) benzamide]: the pIC50 was 9.00 in the assay on Toledo cells (Homo sapiens); 9.00 with RS4;11-BCL-2 F104L cells; 8.22 in the assay on RS4;11-BCL-2 G101V cells (Homo sapiens, RS4-11, 168 h).
With `CC(C)c1ccccc1[C@@H]1CCCN1C1CC2(CCN(c3ccc(C(=O)NS(=O)(=O)c4cc5c(c([N+](=O)[O-])c4)N[C@@H]([C@H]4CC[C@](C)(O)CC4)CO5)c(Oc4cc5cc[nH]c5nc4OC[C@H]4COCCN4C)c3)CC2)C1` (single isomer, unassigned) [Example D-134, N-(((S)-3-((1r,4S)-4-hydroxy-4-methylcyclohexyl)-5-nitro-3,4-dihydro-2H-benzo[b][1,4]oxazin-7-yl)sulfonyl)-4-(2-((R or S)-2-(2-isopropylphenyl)pyrrolidin-1-yl)-7-azaspiro[3.5]nonan-7-yl)-2-((6-(((7)-4-methylmorpholin-3-yl)methoxy)-1H-pyrrolo[2,3-b]pyridin-5-yl)oxy)benzamide], the pIC50 was 9.00 in the assay on Toledo cells (Homo sapiens); 9.00 with RS4;11-BCL-2 F104L cells; 9.00 in the assay with RS4;11-BCL-2 G101V cells (Homo sapiens, RS4-11, 168 h).
For the molecule `CCOc1nc2[nH]ccc2cc1Oc1cc(N2CCC3(CC2)CC(N2CCC[C@H]2c2ccccc2C(C)C)C3)ccc1C(=O)NS(=O)(=O)c1cc2c(c([N+](=O)[O-])c1)N[C@@H]([C@H]1CC[C@](C)(O)CC1)CO2` (single isomer, unassigned) [Example D-65, 2-((6-ethoxy-1H-pyrrolo[2,3-b]pyridin-5-yl)oxy)-N-(((5)-3-((1r,4S)-4-hydroxy-4-methylcyclohexyl)-5-nitro-3,4-dihydro-2H-benzo[b] [1,4]oxazin-7-yl)sulfonyl)-4-(2-((R or S)-2-(2-isopropylphenyl)pyrrolidin-1-yl)-7-azaspiro[3.5]nonan-7-yl)benzamide], the pIC50 in the assay with Toledo cells (Homo sapiens) was 9.00; with RS4;11-BCL-2 F104L cells it was 7.70; with RS4;11-BCL-2 G101V cells (Homo sapiens, RS4-11, 168 h), 9.00.
As to `CC(C)c1ccccc1[C@@H]1CCCN1C1CC2(CCN(c3ccc(C(=O)NS(=O)(=O)c4cc5c(c([N+](=O)[O-])c4)N[C@@H]([C@H]4CC[C@](C)(O)CC4)CO5)c(Oc4cc5c(F)c[nH]c5nc4OC4CCN(C)CC4)c3)CC2)C1` (single isomer, unassigned) [Example D-286, 2-((3-fluoro-6-((1-methylpiperidin-4-yl)oxy)-1H-pyrrolo[2,3-b]pyridin-5-yl)oxy)-N-(((S)-3-((1r,4S)-4-hydroxy-4-methylcyclohexyl)-5-nitro-3,4-dihydro-2H-benzo[b] [1,4]oxazin-7-yl)sulfonyl)-4-(2-((R or S)-2-(2-isopropylphenyl)pyrrolidin-1-yl)-7-azaspiro[3.5]nonan-7-yl)benzamide], the pIC50 is 9.00 with Toledo cells (Homo sapiens); 9.00 in the assay with RS4;11-BCL-2 F104L cells; 9.00 in the assay with RS4;11-BCL-2 G101V cells (Homo sapiens, RS4-11, 168 h).
Consider `CC(C)c1ccccc1[C@@H]1CCC[C@@H]1N1CC2(CCN(c3ccc(C(=O)NS(=O)(=O)c4ccc(NC[C@H]5CC[C@](C)(O)CC5)c([N+](=O)[O-])c4)c(Oc4cnc5[nH]cc(F)c5c4)c3)CC2)C1` (single isomer, unassigned) [Example D-34b, 2-((3-fluoro-1H-pyrrolo[2,3-b]pyridin-5-yl)oxy)-N-((4-((((1r,4r)-4-hydroxy-4-methylcyclohexyl)methyl)amino)-3-nitrophenyl)sulfonyl)-4-(2-((1S,2S or 1R,2R)-2-(2-isopropylphenyl)cyclopentyl)-2,7-diazaspiro[3.5]nonan-7-yl)benzamide], for which the pIC50 is 9.00 in the assay on Toledo cells, 9.00 in the assay with RS4;11-BCL-2 F104L cells and 8.15 with RS4;11-BCL-2 G101V cells.

The record behind these values is US20230159527A1, “COMPOUNDS AS BCL-2 INHIBITORS” (Fochon Pharmaceuticals, Ltd., priority 2020, published 2023).
